Earlier results as cited in publication PMC4956526 (Bioconjugate chemistry, 2016).

Conditions: ref 40 (Lau et al.)

subcutaneous bioavailability [%]	Substance
66	liraglutide
94	semaglutide
